PMC6588349 (eLife, 2019)

Experiments:
[1] = Gramicidin-based fluorescence quench assay for changes of lipid bilayer properties (LUVs); format: physicochemical; details: 1 to 10 µM
Description: To further probe this, we used a fluorescence quench assay for drug-induced changes of lipid bilayer properties ([Ingólfsson and Andersen, 2010]) (Figure 6—figure supplement 3A; see Materials and methods), in which changes in gramicidin channel function is used as a reporter of membrane modification. […] The persistent BINA response is thus consistent with a model where BINA readily partitions into the plasma membrane lipid bilayer (and possibly other lipidic compartments).
The gramicidin-based fluorescence assay has been described previously ([Ingólfsson and Andersen, 2010]). In brief, large unilamellar vesicles (LUVs), loaded with intravesicular ANTS were prepared from DC22:1PC and gramicidin (weight ratio 1000:1, corresponding to a ~ 2000:1 molar ratio) using freeze-drying, extrusion and size-exclusion chromatography; the final lipid concentration was 4–5 mM; the suspension was stored in the dark at 12.5°C for a maximum of 7 days. […] Before use, the LUV-ANTS stock was diluted to 200–250 μM lipid with NaNO3 buffer (140 mM NaNO3, 10 mM HEPES, pH 7).
The NAMs and PAMs (dissolved in DMSO) or DMSO (as control) were added to a LUV-ANTS sample and equilibrated at 25°C in the dark for 10 min. before the mixture was loaded into a stopped-flow spectrofluorometer (Applied Photophysics SX.20, Leatherhead, UK) and mixed with either NaNO3 buffer or TlNO3 buffer; Tl^+ (thallous ion) is a gramicidin channel-permeant quencher of the ANTS fluorescence. Samples were excited at 352 nm and the fluorescence signal above 455 nm was recorded in the absence (four successive trials) or presence (nine successive trials) of the quencher. All the NAM and PAM derivatives fluoresce to varying degrees and addition of these drugs to LUVs in control experiments without gA or Tl^+ increased the fluorescence signal, and each signal was normalized to account for the compound's fluorescence. […] The quench rate (Rate), the rate of Tl^+ influx, was determined at 2 ms: Rate=β/τ0⋅(t/τ0)^β−1|2ms […]

[2] = target: T1, SNAP-mGluR2 (full-length) (Rattus norvegicus, UniProt P31421); experiment: Inter-LBD FRET assay with full-length SNAP-mGluR2; format: cell-based; details: drug applied alone, saturating concentrations
T1 construct: HEK 293T cells expressing full-length mGluR2; expressed in transfected cells; host or cells: HEK 293T
T1 sequence (P31421 19-872): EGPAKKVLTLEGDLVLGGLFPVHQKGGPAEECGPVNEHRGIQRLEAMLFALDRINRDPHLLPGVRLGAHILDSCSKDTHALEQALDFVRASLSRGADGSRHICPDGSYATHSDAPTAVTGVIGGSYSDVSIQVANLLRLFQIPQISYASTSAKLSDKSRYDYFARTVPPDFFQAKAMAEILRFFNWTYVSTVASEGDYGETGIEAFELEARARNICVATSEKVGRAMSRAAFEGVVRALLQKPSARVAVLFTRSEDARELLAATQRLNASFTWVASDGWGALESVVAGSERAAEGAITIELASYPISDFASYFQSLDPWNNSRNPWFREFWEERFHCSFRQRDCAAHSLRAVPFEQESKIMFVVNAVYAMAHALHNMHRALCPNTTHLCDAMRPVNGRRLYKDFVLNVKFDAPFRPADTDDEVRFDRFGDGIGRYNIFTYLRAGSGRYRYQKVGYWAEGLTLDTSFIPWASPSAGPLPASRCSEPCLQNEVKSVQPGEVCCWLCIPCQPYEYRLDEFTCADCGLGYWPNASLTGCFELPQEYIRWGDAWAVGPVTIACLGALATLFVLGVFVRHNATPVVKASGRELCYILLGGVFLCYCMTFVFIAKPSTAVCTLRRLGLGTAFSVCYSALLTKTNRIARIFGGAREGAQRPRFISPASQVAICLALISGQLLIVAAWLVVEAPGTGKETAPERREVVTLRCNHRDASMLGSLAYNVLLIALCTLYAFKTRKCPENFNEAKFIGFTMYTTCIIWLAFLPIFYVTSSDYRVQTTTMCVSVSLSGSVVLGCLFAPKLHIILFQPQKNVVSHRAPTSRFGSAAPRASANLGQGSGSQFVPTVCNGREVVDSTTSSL
Description: We next sought to further probe the variation in PAM-induced inter-TMD FRET changes. […] We used an inter-LBD FRET assay to assess the relative strength of allosteric modulation by different mGluR2 PAMs. Agonists induce a decrease in FRET between fluorophore-conjugated N-terminal SNAP- and CLIP-tags (Figure 4E). […] We tested this effect for all PAMs by applying a saturating concentration of DCG-IV followed by co-application of a saturating concentration of each PAM, which produced further FRET decreases (Figure 4F,G).
(§1) Fluorophores were diluted in EX solution, which was also used to wash coverslips following labeling and prior to mounting on the microscope. After labeling, cells were mounted on an inverted microscope (Olympus IX73) and imaged with a 60x objective. […] Clusters of cells were analyzed together using ImageJ and FRET was calculated as FRET=(IAcceptor)/(IDonor +IAcceptor) where I is fluorescence intensity. No corrections were made for bleed-through between channels or the contribution of donor-donor or acceptor-acceptor dimers as analysis was limited to relative FRET changes between drug treatments rather than absolute FRET values. […] FRET changes calculated for dose–response curves were normalized to the response to saturating […] applied within the same recording and dose–response curves were obtained from multiple cell clusters and averaged from at least three separate experiments. Dose–response curves were fit using Prism (Graphpad). All drugs were purchased from Tocris, prepared in EX solution, and delivered with a gravity-driven perfusion system. For kinetics measurements a pressurized perfusion system (Automate Scientific) was used to produce a flow rate of 0.5 mL/s. Kinetic analysis was performed in Microsoft Excel. The time between 10% and 90% FRET increase or decrease was determined manually. For photo-bleaching/donor-recovery experiments, images were taken in donor and acceptor channels at baseline and again followed by a 1 min exposure to 640 nm laser illumination at maximum intensity. All experiments were performed at room temperature. All data were produced from at least two separate transfections for each condition.

SNAP-mGluR2-TMD = target: T2, SNAP-mGluR2-TMD (Rattus norvegicus, UniProt P31421); experiment: Inter-TMD FRET assay in living HEK 293T cells; format: cell-based; details: for EC50: SNAP-mGluR2-TMD labeled with donor and acceptor, normalized to saturating LY48, mean ± s.e.m., read-out: inter-TMD FRET increase EC50
T2 construct: mGluR2-TMD (rat) starts at Q558; expressed in transfected cells; host or cells: HEK 293T
T2 sequence (P31421 558-872 limits assumed): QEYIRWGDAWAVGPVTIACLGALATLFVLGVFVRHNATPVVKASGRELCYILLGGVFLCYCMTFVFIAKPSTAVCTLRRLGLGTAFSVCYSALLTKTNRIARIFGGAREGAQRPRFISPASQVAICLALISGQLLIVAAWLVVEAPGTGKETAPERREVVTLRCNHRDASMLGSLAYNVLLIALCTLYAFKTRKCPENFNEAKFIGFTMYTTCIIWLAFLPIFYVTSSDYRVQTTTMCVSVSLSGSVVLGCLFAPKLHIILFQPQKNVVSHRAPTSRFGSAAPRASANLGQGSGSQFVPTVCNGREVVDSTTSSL
Description: We therefore sought to develop a FRET sensor that reports on activation-associated motions driven by allosteric drugs and hypothesized that an N-terminal fluorophore on the isolated TMD should report on any inter-TMD rearrangement while allowing the receptor to maintain G-protein coupling (Figure 3A). […] To test if LBD-independent inter-TMD rearrangement is a feature of other mGluRs, we asked if donor and acceptor conjugation to SNAP-mGluR5-TMD would allow for the detection a FRET response to a PAM.
Cells were cultured in DMEM with 5% FBS on poly-L-lysine-coated glass coverslips. DNA plasmids were transfected into cells using Lipofectamine 3000 (Thermo Fisher). […] For single-molecule pulldown (SiMPull) experiments, cells were transfected with 0.7 μg DNA of HA and SNAP-tagged receptor constructs, unless otherwise noted. For FRET experiments, cells were transfected with either SNAP-tagged constructs at 0.5–0.7 μg of DNA/well or SNAP and CLIP-tagged constructs at a ratio of 1:2 with 0.3 μg of SNAP DNA/well.
as §1

[3] = target: T3, full-length mGluR2 (SNAP-mGluR2) (Rattus norvegicus, UniProt P31421); experiment: GIRK activation assay, whole cell patch clamp, HEK 293T cells expressing full-length mGluR2; format: cell-based; details: for EC50: read-out: GIRK activation EC50
T3 construct: HEK 293T cells expressing full-length mGluR2; expressed in transfected cells; host or cells: HEK 293T
T3 sequence (P31421 19-872): as the sequence (P31421 19-872) above
Procedure: Cells were cultured in DMEM with 5% FBS on poly-L-lysine-coated glass coverslips. DNA plasmids were transfected into cells using Lipofectamine 3000 (Thermo Fisher). […] For single-molecule pulldown (SiMPull) experiments, cells were transfected with 0.7 μg DNA of HA and SNAP-tagged receptor constructs, unless otherwise noted.
Whole-cell patch clamp recordings from single isolated cells were performed 24–36 hr after transfection in a high-potassium extracellular solution containing (in mM): 120 KCl, 29 NaCl, 1 MgCl2, 2 CaCl2 and 10 HEPES, pH 7.4. Cells were voltage clamped to −60 mV using an Axopatch 200B amplifier (Axon Instruments) and membrane currents were recorded. Glass pipettes of resistance between 3 and 8 MΩ were filled with intracellular solution containing (in mM): 140 KCl, 10 HEPES, 3 Na2ATP, 0.2 Na2GTP, 5 EGTA and 3 MgCl2, pH 7.4. Data were acquired with a 2 kHz acquisition rate and filtered with the amplifier 4-pole Bessel filter at 1 kHz. Drugs were prepared in extracellular solution and applied using a gravity-driven perfusion system. Data were analyzed with Clampfit (Molecular Devices) and Prism (GraphPad). Data for all conditions came from at least two separate transfections.

SNAP-mGluR2 = target: T4, SNAP-mGluR2 (Rattus norvegicus, UniProt P31421); experiment: Single-molecule pulldown (SiMPull) photobleaching step counting, full-length SNAP-mGluR2; details: saturating (1 mM) glutamate
T4 construct: HEK 293T cells expressing full-length mGluR2; expressed in transfected cells; host or cells: HEK 293T
T4 sequence (P31421 19-872): as above
Procedure: To restrict our analysis to surface-targeted receptors, we expressed N-terminally SNAP-tagged receptor variants and labeled them with membrane-impermeable fluorophores.
To test this, we incubated SNAP-mGluR2-TMD expressing cells and lysates with PAMs or NAMs during the SiMPull experiment.
Briefly, to prevent non-specific sticking of proteins, flow chambers were prepared with mPEG-passivated glass slides and coverslips doped with ~1% biotinylated mPEG, as previously described. Prior to each experiment, chambers were incubated with 0.2 mg/mL NeutrAvidin (ThermoFisher) for 2 min followed by 10 nM of a biotinylated anti-HA antibody (abcam ab26228) for 20–30 min. After each conjugation step, the chambers were washed with T50 buffer (50 mM NaCl, 10 mM Tris, pH 7.5).
After labeling, cells were dissociated from coverslips by incubating with Ca^2+-free PBS for 20 min followed by gentle pipetting. […] Following 1 hr of lysis at 4°C, cells were centrifuged at 16,000 g for 20 min before the supernatant was collected and maintained on ice. The cell lysate was diluted in a 0.1% detergent dilution buffer to obtain sparse immobilization of labeled protein on the passivated slide. […]
Single molecules were imaged with a 100x objective on an inverted microscope (Olympus IX73) in total internal reflection fluorescence (TIRF) mode. […]

SNAP-mGluR5-TMD = SNAP-mGluR5-TMD (Homo sapiens, UniProt P41594); experiment: Inter-TMD FRET assay with SNAP-mGluR5-TMD; format: cell-based, H. sapiens; details: mGluR5 PAM applied alone
Sequence of SNAP-mGluR5-TMD (P41594 570-876 limits assumed): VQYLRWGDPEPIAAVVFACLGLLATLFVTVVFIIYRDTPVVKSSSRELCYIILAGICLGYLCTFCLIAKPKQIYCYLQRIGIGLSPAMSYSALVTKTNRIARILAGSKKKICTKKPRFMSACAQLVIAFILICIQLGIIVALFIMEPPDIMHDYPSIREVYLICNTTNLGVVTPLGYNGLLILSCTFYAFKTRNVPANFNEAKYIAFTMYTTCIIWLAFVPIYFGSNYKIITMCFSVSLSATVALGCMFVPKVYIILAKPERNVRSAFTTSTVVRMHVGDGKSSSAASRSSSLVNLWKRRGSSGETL

| direct effect on inter-LBD FRET (no orthosteric agonist for modulators) [2] | EC50 (SNAP-mGluR2-TMD) [nM] | inter-TMD FRET response onset (SNAP-mGluR2-TMD; saturating concentrations) [s] | inter-TMD FRET response reversal (SNAP-mGluR2-TMD; saturating concentrations) [min] | EC50 [3] [nM] | SMILES | other results |
| --- | --- | --- | --- | --- | --- | --- |
| – | – | – | – | – | Cc1c(OCc2cccc(-c3ccc(C(=O)O)cc3)c2)cc2c(c1C)C(=O)C(C1CCCC1)C2 (stereo not drawn) [BINA] | changes in gramicidin channel function (membrane properties) [1]: greatest changes in gramicidin channel function |
| no FRET response | 3500 ± 200 | 10 to 40 | < 2 | 460 ± 200 | CCS(=O)(=O)N(Cc1cccnc1)c1cccc(-c2ccc(C#N)cc2)c1 [CBiPES] | inter-TMD FRET kinetics relative to LY48 (SNAP-mGluR2-TMD): substantially faster ON and OFF kinetics |
| large FRET decrease | – | – | – | – | N[C@@H](CCC(=O)O)C(=O)O [Glutamate] | two-step bleaching events of SNAP-mGluR2 with glutamate (SNAP-mGluR2): ~ 60%; GIRK current time 10% to 90% ([3]; saturating: 10 µM LY48, 1 mM Glutamate): 1.9 ± 0.5 s |
| no FRET response | 900 ± 100 | 10 to 40 | < 2 | 380 ± 110 | Cc1c(C(N)=O)nc2n1C[C@@H](COc1ccc(C(C)(C)C)cc1)O2 [TASP] | maximum inter-TMD FRET increase relative to LY48 (SNAP-mGluR2-TMD; saturating concentrations, compared to saturating LY48): ~ 1.3 times that of LY48 |
| – | – | – | – | – | O=C(NC1CCC1)c1ccc(C#Cc2cccc(F)c2)nc1 [VU0360172] | inter-TMD FRET response of SNAP-mGluR5-TMD (SNAP-mGluR5-TMD): reversible FRET response |
| – | – | – | – | – | O=C(O)c1cc(O)c2cccc(O)c2n1 [XA, Xanthurenic acid] | inter-TMD FRET response to drug alone (SNAP-mGluR2-TMD; drug applied alone, XA up to 50 µM): neither inter-TMD FRET changes |
